Assay results reported in patent US4329362A, “2-Amino-4-(substituted hydrazino)-6-oxo pyrimidines” (Burroughs Wellcome Co., priority 1977, dated 1982).
Structures can show the parent of a compound that is named as a salt.

target: dihydropteroic acid biosynthesis (DHPB): hydroxymethyldihydropteridine pyrophosphokinase and dihydropteroate synthetase; experiment: coupled assay of dihydropteroic acid biosynthesis (kinase + synthetase), 14C H2pteroate formation; type: biochemical; settings: coupled assay method; E. coli extract, 0-50% ammonium sulfate fraction; 14C in H2 pteroate from p-aminobenzoate-7-14C; read-out: Concentration in μM required to give 50% inhibition of DHPB
Text: Potential inhibitors of DHPB synthesis may be tested by investigating the inhibitory effect they impose in the enzymes responsible for the biosynthesis of dihydropteroic acid (DPtA), namely hydroxymethyldihydropteridine pyrophosphokinase (HMPPS), and dihydropteroate synthetase, hereinafter referred to as `synthetase`. In the following reaction equations the compounds are referred to by their abbreviated forms defined hereinbefore in the specification. [formula]
This reaction requires two enzymes since the starting substrates are H2 ptCH2 OH, ATP, and pAB, and the products are H2 pteroate and AMP.
The reactions are followed by determining the amount of ^14 C in H2 pteroate after separation from the substrate, p-aminobenzoate-7-^14 C, by paper chromatography.

Row | Structure (SMILES) | IC50
1 | COc1cc(OC)c(C(=O)Cc2nn(C)c3nc(N)[nH]c(=O)c3c2=O)c(OC)c1 [7-Amino-3-(2,4,6-trimethoxyphenacyl)-1-methylpyrimido(4,5-c)pyridazine-4,5(1H, 6H)-dione] | 2.7 µM
2 | COc1cc(C(=O)Cc2nn(C)c3nc(N)[nH]c(=O)c3c2=O)cc(OC)c1OC [7-Amino-3-(3,4,5-trimethoxyphenacyl)-1-methylpyrimido(4,5-c)pyridazine-4,5(1H, 6H)-dione] | 0.03 µM
3 | Cn1nc(Cc2ccccc2[N+](=O)[O-])c(=O)c2c(O)nc(N)nc21 [7-amino-1-methyl-3-(2-nitrobenzyl)-4-oxo-5-hydroxy-1,4-dihydropyrimido(4,5-c)pyridazine] | 12 µM
4 | COc1cc(CC(C#N)c2nn(C)c3nc(N)nc(O)c3c2=O)cc(OC)c1OC (stereo not drawn) [7-amino-1-methyl-3-(α-cyano-3,4,5-trimethoxyphenethyl)-4-oxo-5-hydroxy-1,4-dihydropyrimido(4,5-c)pyridazine] | 11 µM
5 | COc1cc(Cc2nn(C)c3nc(N)nc(O)c3c2=O)cc(OC)c1OC [7-amino-3-(3,4,5-trimethoxybenzyl)-1-methyl-4-oxo-5-hydroxy-1,4-dihydropyrimido(4,5-c)pyridazine] | 0.77 µM
6 | COc1ccc(Cc2nn(C)c3nc(N)nc(O)c3c2=O)cc1OC [7-amino-3-(3,4-dimethoxybenzyl)-1-methyl-4-oxo-5-hydroxy-1,4-dihydropyrimido(4,5-c)pyridazine] | 0.86 µM
7 | Cn1nc(Cc2ccccc2)c(=O)c2c(O)nc(N)nc21 [CH2 C6 H5, 7-amino-1-methyl-3-benzyl-4-oxo-5-hydroxy-1,4-dihydropyrimido(4,5-c)pyridazine] | 11 µM
8 | CCOC(=O)CCc1nn(C)c2nc(N)[nH]c(=O)c2c1=O [CH2 CH2 CO2 C2 H5] | 16 µM
9 | CCOC(=O)Cc1nn(C)c2nc(N)nc(O)c2c1=O [CH2 CO2 C2 H5, 7-amino-1-methyl-3-(ethoxycarbonylmethyl)-4-oxo-5-hydroxy-1,4-dihydropyrimido(4,5-c)pyridazine] | 6.2 µM
10 | CC(=O)OCc1nn(C)c2nc(N)[nH]c(=O)c2c1=O [CH2 OCOCH3, 7-Amino-3-acetoxymethyl-1-mehylpyrimido(4,5-c)pyridazine-4,5(1H, 6H)-dione] | 15 µM
11 | Cn1nc(CO)c(=O)c2c(=O)[nH]c(N)nc21 [CH2 OH, 7-Amino-3-hydroxymethyl-1-methylpyrimido(4,5-c)pyridazine-4,5(1H, 6H)-dione Sodium Salt] | 12 µM
12 | CCOC(=O)C(C)c1nn(C)c2nc(N)[nH]c(=O)c2c1=O (stereo not shown) [CH(CH3)CO2 C2 H5, 7-Amino-3-(1-ethoxycarbonylethyl)-1-methylpyrimido(4,5-c)pyridazine-4,5(1H,6H)-dione] | 1.6 µM
13 | CCOC(=O)C(OC)c1nn(C)c2nc(N)[nH]c(=O)c2c1=O (stereo not shown) [CH(OCH3)CO2 C2 H5] | 17 µM
14 | COC(C(=O)O)c1nn(C)c2nc(N)nc(O)c2c1=O (stereo not shown) [CH(OCH3)CO2 H, 7-amino-1-methyl-3-((1-methoxy)carboxymethyl)-4-oxo-5-hydroxy-1,4-dihydropyrimido(4,5-c)pyridazine] | 2.8 µM
15 | CCCCCCc1nn(C)c2nc(N)[nH]c(=O)c2c1=O [n-C6 H13] | 50 µM

Now from value to molecule:

Row | IC50 | Structure (SMILES)
16 | 0.14 µM | COc1ccc(C(=O)Cc2nn(C)c3nc(N)[nH]c(=O)c3c2=O)c(OC)c1 [7-Amino-3-(2,4-dimethoxyphenacyl)-1-methylpyrimido(4,5-c)pyridazine-4,5(1H,6H)-dione]
17 | 0.06 µM | COc1ccc(OC)c(C(=O)Cc2nn(C)c3nc(N)[nH]c(=O)c3c2=O)c1 [7-Amino-3-(2,5-dimethoxyphenacyl)-1-methylpyrimido(4,5-c)pyridazine-4,5(1H,6H)-dione]
18 | 0.15 µM | COc1ccc(C(=O)Cc2nn(C)c3nc(N)[nH]c(=O)c3c2=O)cc1OC [7-Amino-3-(3,4-dimethoxyphenacyl)-1-methylpyrimido(4,5-c)pyridazine-4,5(1H,6H)-dione]
19 | 0.22 µM | Cn1nc(CC(=O)c2cccc(O)c2)c(=O)c2c(=O)[nH]c(N)nc21 [7-Amino-3-(3-hydroxyphenacyl)-1-methylpyrimido(4,5-c)pyridazine-4,5(1H, 6H)-dione]
20 | 33 µM | CCc1nn(C)c2nc(N)[nH]c(=O)c2c1=O [C2 H5]
21 | 15 µM | Cn1nc(-c2ccccc2)c(=O)c2c(O)nc(N)nc21 [C6 H5, 7-amino-1-methyl-3-phenyl-4-oxo-5-hydroxy-1,4-dihydropyrimido(4,5-c)pyridazine]
22 | 5.5 µM | Cn1nc(CCC(=O)O)c(=O)c2c(=O)[nH]c(N)nc21 [CH2 CH2 CO2 H]
23 | 0.76 µM | Cn1nc(CC(=O)c2ccccc2)c(=O)c2c(=O)[nH]c(N)nc21 [CH2 COC6 H5, 7-Amino-3-phenacyl-1-methylpyrimido(4,5-c)pyridazine-4,5(1H, 6H)-dione]
24 | 16 µM | Cc1nn(C)c2nc(N)[nH]c(=O)c2c1=O [CH3, 7-Amino-1,3-dimethylpyrimido(4,5-c)pyridazine-4,5-(1H, 6H)-dione]
25 | 3.7 µM | CC(C(=O)O)c1nn(C)c2nc(N)[nH]c(=O)c2c1=O (stereo not shown) [CH(CH3)CO2 H, 7-Amino-3-(1-carboxyethyl)-1-methylpyrimido(4,5-c)pyridazine-4,5(1H, 6H)-dione Disodium Salt]
26 | 21 µM | Cn1nc(C(=O)O)c(=O)c2c(=O)[nH]c(N)nc21 [CO2 H (disodium salt), 7-Amino-3-carboxy-1-methylpyrimido(4,5-c)pyridazine-4,5(1H, 6H)-dione Disodium Salt]
27 | 30 µM | Cn1nc(-c2c[nH]c3ccccc23)c(=O)c2c(=O)[nH]c(N)nc21 [Example 3-Indolyl]
28 | 20 µM | CC(C)Cc1nn(C)c2nc(N)[nH]c(=O)c2c1=O [iso-C4 H9]
29 | 45 µM | CCCc1nn(C)c2nc(N)[nH]c(=O)c2c1=O [n-C3 H7]

test system: not listed separately; experiment: pKa values; type: physicochemical; settings: read-out: pKa values (first value)

Row | pKa | Structure (SMILES)
30 | 4.1 ± 0.1 | Cc1nn(C)c2nc(N)[nH]c(=O)c2c1=O [CH3, 7-Amino-1,3-dimethylpyrimido(4,5-c)pyridazine-4,5-(1H, 6H)-dione]

same assay, conditions: read-out: pKa values (second value)

Row | pKa | Structure (SMILES)
31 | 8.6 ± 0.1 | Cc1nn(C)c2nc(N)[nH]c(=O)c2c1=O [CH3, 7-Amino-1,3-dimethylpyrimido(4,5-c)pyridazine-4,5-(1H, 6H)-dione]
